Results as given in patent US20100249061A1, “OLIGOSACCHARIDES, PREPARATION METHOD AND USE THEREOF, AND PHARMACEUTICAL COMPOSITIONS CONTAINING SAME” (Aventis Pharma S.A., priority 2004, published 2010).
Where two headings read alike, the source gives them in different places. Values belong to the substance of their own block, whether it stands above or below them.

Columns and labels:
heparanase = biological target: T1, heparanase (Homo sapiens, UniProt Q9Y251); experiment: Heparanase inhibition in an enzymatic system (degradation of fondaparinux, residual anti-factor Xa activity); format: biochemical
T1 sequence (Q9Y251 36-543): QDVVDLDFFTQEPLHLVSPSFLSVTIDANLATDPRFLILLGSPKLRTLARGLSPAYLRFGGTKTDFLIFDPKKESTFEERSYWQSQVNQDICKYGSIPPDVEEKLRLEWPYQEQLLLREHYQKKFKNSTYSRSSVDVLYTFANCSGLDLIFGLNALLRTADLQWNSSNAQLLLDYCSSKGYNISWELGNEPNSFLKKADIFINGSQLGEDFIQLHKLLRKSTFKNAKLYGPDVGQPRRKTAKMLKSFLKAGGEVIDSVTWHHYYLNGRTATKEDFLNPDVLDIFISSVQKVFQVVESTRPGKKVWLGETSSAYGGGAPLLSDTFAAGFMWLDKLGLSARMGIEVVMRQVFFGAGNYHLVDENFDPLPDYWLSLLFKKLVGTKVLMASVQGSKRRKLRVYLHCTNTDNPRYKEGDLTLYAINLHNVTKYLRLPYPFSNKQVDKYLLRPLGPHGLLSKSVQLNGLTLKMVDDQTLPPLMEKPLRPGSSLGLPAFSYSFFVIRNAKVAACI
Protocol: The concentration of fondaparinux is determined by virtue of its anti-factor Xa activity.
The heparanase is produced by Sanofi-Synthélabo (Labège, France). The reagents for assaying factor Xa are sold by Chromogénix (Montpellier, France).
Increasing concentrations of a compound according to the invention, heparanase inhibitor ([…]), are mixed with a fixed concentration of heparanase (for each batch, preliminary experiments make it possible to determine the enzymatic activity sufficient for degradation of 0.45 μg/ml of fondaparinux added). After 5 minutes at 37° C., the mixture is brought into contact with the fondaparinux and left at 37° C. for 1 hour. The reaction is stopped by heating at 95° C. for 5 minutes. The residual fondaparinux concentration is finally measured by adding factor Xa and its specific chromogenic substrate (Ref. S2222).
50 μl of sodium acetate buffer (0.2 M, pH 4.2) are mixed with 50 μl of fondaparinux (0.45 μg/ml) and 59 μl of a heparanase solution. The mixture is incubated for 1 hour at 37° C. and then for 5 minutes at 95° C. The pH thus goes from 4.2 to 7. 100 μl of the reaction mixture are then mixed with 50 μl of 50 mM Tris buffer containing 175 mM NaCl and 75 mM EDTA, […]. The anti-factor Xa activity of the fondaparinux is measured in the following way:
100 μl of the solution obtained in step a) are mixed with 100 μl of AT (0.5 μg/ml). The mixture is kept at 37° C. for 2 minutes and 100 μl of factor Xa (7 nkat/ml) are then added. The mixture is kept at 37° C. for 2 minutes and 100 μl of chromogenic substrate (Ref.: S2222) (1 mM) are then added. The mixture is kept at 37° C. for 2 minutes and then 100 μl of acetic acid (50%) are added. The optical density is read at 405 nm. A percentage inhibition is determined relative to the control without inhibitor. A percentage inhibition curve makes it possible to calculate an IC50.

[1] = biological target: T2, heparanase isolated from human peripheral blood leukocytes (PMN supernatant) (Homo sapiens, UniProt Q9Y251); experiment: Heparanase degradation of 35-S-labelled heparan sulphate proteoglycan, gel permeation chromatography and scintillation counting; format: biochemical
T2 construct: The supernatants containing the heparanase are then collected; from tissue; host or cells: human peripheral blood leukocytes (buffy coats) enriched in PMNs; cell supernatant
T2 sequence (Q9Y251 36-543): T1 sequence (Q9Y251 36-543)
Text: Radiolabelled heparin/heparan sulphate (HS) is degraded with heparanases, producing low molecular weight HS fragments which can be measured by gel permeation chromatography (FPLC) and counting of the collected fractions by liquid scintillation.
A uterine fibroblast cell line was used to prepare heparan sulphate (proteoglycan) labelled with 35-S by metabolic labelling. It has been shown that this cell line produces relatively large amounts of various heparan sulphate proteoglycans (HS-PGs), such as syndecans and glypican (Drzeniek et al., Blood 93:2884-2897, 1999).
The labelling is carried out by incubating the cells, with a cell density of approximately 1×10^6 cells/ml, in the presence of 35-S-sulphate at 33 μCi/ml in the tissue culture medium for 24 hours. The supernatants are then collected and a protease inhibitor, PMSF (phenylmethylsulfonyl fluoride) (1 mmol/l), is added. […]
200 μl of 35-S-labelled heparan sulphate (proteoglycans) adjusted to approximately 2200 cpm/ml (cpm=counts per minute) are incubated at 37° C. for 18 hours with 1 μl of PMN supernatant containing the heparanase. 200 μl of the mixture obtained above are sampled on a TSK 4000 gel permeation chromatography column (FPLC), and the fractions are collected and analyzed by liquid scintillation counting.
The degradation was measured according to the following formula: […]
For example, the percentage degradation is calculated as follows: the sum of the counts (cpm) in fractions 20-33 of the sample after treatment with the heparanase, minus the background noise count (cpm) (fractions 20-33) of the control sample, is divided by the total counts (fractions 12-33) applied to the column. […] A correction for the sulphatase activity is not necessary since no sulphatase activity could be detected.
The following heparanase inhibitors: unfractionated heparin (UF-H) and Hexa Iso ATIII were assayed via the protocol described above at three different concentrations. […] The data are expressed as percentage inhibition of the heparanase activity. […]

ATIII = ATIII (Homo sapiens, UniProt P01008); experiment: Affinity for ATIII; format: binding
[2] = Stability in alkaline medium / physicochemical properties; details: loses 3-O-sulphated terminal glucosamine, converted to pentasaccharide ΔIs-IIaid-GlcA as soon as pH exceeds 8
Protocol: The depolymerization of the heparin takes place under the following conditions: 3 g of heparin from porcine mucous are dissolved in 30 ml of a solution of 0.2M NaCl, 0.02% BSA, 5 mM Na2HPO4, adjusted to pH 7. The depolymerization temperature is 16° C. 2 IU of heparinase 1 are initially introduced. After 7 days, an additional unit of heparinase 1 is added. After 15 days, the heparin depolymerization is considered to be finished. The reaction is monitored either by analytical […] on a TSK Super SW 2000 column (FIG. 1), or on a CTA-SAX column (FIG. 2a). The enzyme reaction may be considered to be sufficiently advanced when the proportion of oligosaccharides greater than octasaccharide in size is limited and when the two main sulphated hexasaccharides ΔIs-Isid-Isid and ΔIs-Isid-IIsglu in the mixture have been depolymerized to tetrasaccharides. When the enzyme reaction has finished, the solution is filtered through a 0.2 μm membrane and then injected, in 2 stages, onto a GC column filled with Biogel P10 (Bio Rad), in which a 0.2 N NaCl mobile phase circulates (FIG. 3). […] It is therefore very important to slightly acidify (pH between 5 and 6) the entire hexasaccharide fraction.

[3] = Petitou et al., J. Biol. Chem. (1988); sodium salt; cited from earlier work

Sequence of ATIII (P01008 33-464, species assumed): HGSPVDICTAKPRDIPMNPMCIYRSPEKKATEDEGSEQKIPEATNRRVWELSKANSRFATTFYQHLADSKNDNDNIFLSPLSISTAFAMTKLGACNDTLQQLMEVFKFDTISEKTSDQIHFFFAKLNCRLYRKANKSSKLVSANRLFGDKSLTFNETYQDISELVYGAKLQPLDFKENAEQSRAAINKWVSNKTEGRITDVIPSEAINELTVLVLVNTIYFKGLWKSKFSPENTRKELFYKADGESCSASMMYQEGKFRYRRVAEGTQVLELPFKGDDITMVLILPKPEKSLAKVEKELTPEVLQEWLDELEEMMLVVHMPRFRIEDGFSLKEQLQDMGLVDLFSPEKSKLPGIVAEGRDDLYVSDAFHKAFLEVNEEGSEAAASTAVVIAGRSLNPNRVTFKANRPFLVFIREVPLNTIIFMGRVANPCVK

% inhibition (heparanase; Concentration 3.00E−5 M): 48.5%
heparanase-inhibiting activity (conclusion in words) [1]: strong heparanase-inhibiting activity
heparanase-inhibiting activity (conclusion in words) ([1]; listed as hexasaccharide Iso ATIII): very good heparanase inhibitor
dose dependence of heparanase inhibition ([1]; three concentrations, FIG. 2 / FIG. 7): dose-dependant inhibition
affinity for ATIII (ATIII): no affinity for ATIII
stability in alkaline medium [2]: extremely fragile in alkaline medium
Substance: ΔIs-IIaid-IIsglu [Hexa Iso ATIII]
anti-thrombotic activity (Anti-thrombotic activity): devoid of anti-thrombotic activity
anti-thrombotic activity [3]: no anti-thrombotic activity

Substance: ΔIs-Ia-IIs [(Im)]
% inhibition (heparanase; Concentration 3.00E−5 M): 54.1%

Substance: ΔIs-Is-Is-IIa-IIs [(Ig)]
% inhibition (heparanase; Concentration 1.00E−4 M): 55.8%

Substance: ΔIs-Is-IIa-IIs [(Ic)]
% inhibition (heparanase; Concentration 3.00E−6 M): 59.2%

Substance: ΔIs-Is-Is-IIa-IIs [(If)]
% inhibition (heparanase; Concentration 3.00E−6 M): 58.4%

Substance: ΔIs-Is-Ia-IIs [(Id)]
% inhibition (heparanase; Concentration 3.00E−5 M): 53.9%

Substance: ΔIs-IIa-IIs [(Ia)]
% inhibition (heparanase; Concentration 1.00E−4 M): 53.8%

Substance: ΔIs-Is-Is-Ia-IIs [(Ih)]
% inhibition (heparanase; Concentration 3.00E−5 M): 55.5%

Substance: ΔIs-Is-Is-Is-IIs [(Ij)]
% inhibition (heparanase; Concentration 3.00E−5 M): 48.4%

Substance: ΔIs-Is-IIa-IIs [(Ib)]
% inhibition (heparanase; Concentration 1.00E−5 M): 59.9%

Substance: ΔIs-Is-Is-IIs [(Ie)]
% inhibition (heparanase; Concentration 3.00E−5 M): 59.1%
